A short description of series [1]: Toxicity in male Beagle dog assessed as fold decrease in total protein level at 15 mg/kg, po qd measured for 60 days. Type of series: organism-based, Canis lupus familiaris. Conditions: in vivo, 1440 h, time 60 day. More on the design: scale not given: the % may be the effect or the level left.
Series [2] can be described thus: Free AUC (0 to 24 hrs) in Beagle dog at 45 mg/kg, po qd measured after 60 days. The conditions noted are these: in vivo, 1440 h, time 60 day. Type of series: ADME, organism-based, Canis lupus familiaris.
For series [3], the target named is Voltage-gated inwardly rectifying potassium channel KCNH2 (Homo sapiens, UniProt Q12809). Nature of the series: Inhibition of hERG. Type of series: toxicity. (The hERG channel carries a current that helps repolarise heart muscle cells.)
Chain of Voltage-gated inwardly rectifying potassium channel KCNH2 (Q12809 whole entry): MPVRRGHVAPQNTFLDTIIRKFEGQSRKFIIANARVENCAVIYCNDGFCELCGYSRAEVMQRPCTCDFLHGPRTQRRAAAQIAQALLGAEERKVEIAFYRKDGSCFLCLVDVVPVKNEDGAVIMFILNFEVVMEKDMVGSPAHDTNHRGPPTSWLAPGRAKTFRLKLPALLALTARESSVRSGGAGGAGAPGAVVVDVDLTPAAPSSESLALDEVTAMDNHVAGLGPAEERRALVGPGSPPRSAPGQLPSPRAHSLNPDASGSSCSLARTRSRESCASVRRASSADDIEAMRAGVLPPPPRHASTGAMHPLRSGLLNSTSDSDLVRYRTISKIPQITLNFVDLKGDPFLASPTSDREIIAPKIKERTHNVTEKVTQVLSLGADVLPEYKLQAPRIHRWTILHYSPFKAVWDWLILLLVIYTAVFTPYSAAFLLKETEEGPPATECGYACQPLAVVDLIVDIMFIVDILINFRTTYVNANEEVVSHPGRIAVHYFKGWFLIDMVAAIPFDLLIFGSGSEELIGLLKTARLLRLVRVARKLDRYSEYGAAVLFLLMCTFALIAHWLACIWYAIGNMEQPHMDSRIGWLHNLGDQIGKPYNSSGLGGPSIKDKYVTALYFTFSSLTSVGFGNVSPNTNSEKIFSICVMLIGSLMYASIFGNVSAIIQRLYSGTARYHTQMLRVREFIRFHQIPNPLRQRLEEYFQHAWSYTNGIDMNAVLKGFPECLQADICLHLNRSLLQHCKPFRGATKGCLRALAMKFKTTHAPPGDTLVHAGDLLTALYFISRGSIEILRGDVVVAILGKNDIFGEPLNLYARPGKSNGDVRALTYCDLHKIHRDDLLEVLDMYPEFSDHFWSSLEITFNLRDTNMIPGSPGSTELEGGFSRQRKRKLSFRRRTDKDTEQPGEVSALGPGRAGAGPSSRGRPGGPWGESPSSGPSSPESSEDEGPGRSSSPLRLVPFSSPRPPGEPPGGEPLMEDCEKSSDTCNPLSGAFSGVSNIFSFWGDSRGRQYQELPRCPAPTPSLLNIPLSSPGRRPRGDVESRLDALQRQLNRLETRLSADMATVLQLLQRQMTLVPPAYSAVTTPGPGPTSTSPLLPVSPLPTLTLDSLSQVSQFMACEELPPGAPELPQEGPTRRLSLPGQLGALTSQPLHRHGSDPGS
Series [4] deals with Hepatitis B virus. As to the kind of experiment: Antiviral activity against HBV infected in human primary hepatocytes assessed as reduction in HBeAg production pre-infected cells with virus followed by inoculum removal and subsequent addition of compounds with replenishment on days 4,7,9,11 and 14 post-infection measured after 16 days. The class given is functional, organism-based. The conditions noted are these: Hepatocyte, 384 h.

The nature of series [5]: Free Cmax in Beagle dog at 15 mg/kg, po qd measured after 60 days. The class given is ADME, organism-based, Canis lupus familiaris. Conditions: in vivo, 1440 h, time 60 day.
For series [6], the system named is Hepatitis B virus. As to the kind of experiment: Antiviral activity against HBV infected in human primary hepatocytes assessed as reduction in HBsAg production pre-infected cells with virus followed by inoculum removal and subsequent addition of compounds with replenishment on days 4,7,9,11 and 14 post-infection measured after 16 days. Type of series: functional, organism-based. Conditions: Hepatocyte, 384 h.

Series [7] in a line: Free Cmax in Beagle dog at 45 mg/kg, po qd measured after 60 days. The class given is ADME, organism-based, Canis lupus familiaris. Conditions: in vivo, 1440 h, time 60 day.
A short description of series [8]: Toxicity in female Beagle dog assessed as fold decrease in cholesterol level at 15 to 45 mg/kg, po qd measured for 60 days. The class given is organism-based, Canis lupus familiaris. Set-up: scale not given: the % may be the effect or the level left. The conditions noted are these: in vivo, 1440 h, dose 15-45 mg/kg, time 60 day.
In series [9] the test system is Hepatitis B virus. Nature of the series: Antiviral activity against HBV infected in human primary hepatocytes assessed as reduction in HBV DNA production pre-infected cells with virus followed by inoculum removal and subsequent addition of compounds with replenishment on days 4,7,9,11 and 14 post-infection measured after 16 days. The conditions noted are these: Hepatocyte, 384 h. Type of series: functional, organism-based.

Series [10] can be described thus: Total AUC (0 to 24 hrs) in Beagle dog at 15 mg/kg, po qd measured after 60 days. Type of series: ADME, organism-based, Canis lupus familiaris. The conditions noted are these: in vivo, time 60 day.
Series [11] in a line: Toxicity in male Beagle dog assessed as decrease in body weight at 15 to 45 mg/kg, po qd measured for 60 days. The conditions noted are these: in vivo, 1440 h, dose 15-45 mg/kg, time 60 day. Type of series: organism-based, Canis lupus familiaris. Set-up: scale not given: the % may be the effect or the level left.
Series [12] in a line: Total Cmax in Beagle dog at 45 mg/kg, po qd measured after 60 days. Type of series: ADME, organism-based, Canis lupus familiaris. The conditions noted are these: in vivo, time 60 day.
The target of another series is CYP2D6 (Homo sapiens, UniProt P10635). Nature of the series: Inhibition of CYP2D6 in human liver microsomes using dextromethorphan as substrate preincubated for 30 min followed by NADPH addition measured after 12 mins by LC-MS/MS analysis. Type of series: ADME, Microsome. Conditions: human, liver microsomes, probe dextromethorphan.
Chain of CYP2D6 (P10635 whole entry): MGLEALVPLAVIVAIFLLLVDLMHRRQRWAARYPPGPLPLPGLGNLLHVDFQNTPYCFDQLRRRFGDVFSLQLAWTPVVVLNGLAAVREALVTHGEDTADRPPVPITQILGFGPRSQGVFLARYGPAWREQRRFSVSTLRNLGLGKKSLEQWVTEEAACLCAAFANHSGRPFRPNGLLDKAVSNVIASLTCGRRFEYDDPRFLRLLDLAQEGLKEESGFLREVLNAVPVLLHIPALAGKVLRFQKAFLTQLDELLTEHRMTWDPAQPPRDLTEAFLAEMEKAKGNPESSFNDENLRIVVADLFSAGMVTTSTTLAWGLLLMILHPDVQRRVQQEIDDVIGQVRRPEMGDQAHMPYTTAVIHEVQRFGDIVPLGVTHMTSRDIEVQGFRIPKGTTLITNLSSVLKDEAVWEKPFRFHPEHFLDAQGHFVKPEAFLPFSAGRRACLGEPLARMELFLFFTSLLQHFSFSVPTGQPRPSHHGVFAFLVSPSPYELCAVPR
Series [13] in a line: Free AUC (0 to 24 hrs) in Beagle dog at 5 mg/kg, po qd measured after 91 days. Conditions: in vivo, 2184 h, time 91 day. Type of series: ADME, organism-based, Canis lupus familiaris.
Series [14] can be described thus: Total AUC (0 to 24 hrs) in Beagle dog at 15 mg/kg, po qd measured after 91 days. The class given is ADME, organism-based, Canis lupus familiaris. The conditions noted are these: in vivo, time 91 day.
Series [15] is described as follows: Total Cmax in Beagle dog at 60 mg/kg, po qd measured after 91 days. The class given is ADME, organism-based, Canis lupus familiaris. Conditions: in vivo, time 91 day.
Series [16] is described as follows: Ratio of drug concentration in liver to plasma of Sprague-Dawley rat at 10 mg/kg, po measured for 24 hrs by LC-MS/MS analysis. Type of series: ADME, organism-based. Conditions: liver and plasma.
Series [17] can be described thus: Total Cmax in Beagle dog at 5 mg/kg, po qd measured after 91 days. Type of series: ADME, organism-based, Canis lupus familiaris. The conditions noted are these: in vivo, time 91 day.
In another series the test system is RNA. As to the kind of experiment: Destabilization of HBV RNA assessed as decrease in HBsAg production by cell-based assay. Conditions: Hepatitis B virus.
Series [18] can be described thus: Ratio of total drug concentration in liver to plasma in Sprague-Dawley rat at 10 mg/kg, po measured for 24 hrs by LC-MS/MS analysis. Type of series: ADME, organism-based. The conditions noted are these: liver and plasma.
The nature of series [19]: Free AUC (0 to 24 hrs) in Beagle dog at 45 mg/kg, po qd measured after 91 days. The conditions noted are these: in vivo, 2184 h, time 91 day. Type of series: ADME, organism-based, Canis lupus familiaris.
Series [20] relates to Hepatitis B virus. Nature of the series: In vivo destabilization of HBV RNA in immuno-competent mouse model of chronic HBV assessed as log10 reduction in HBV DNA. Type of series: functional.
Another series concerns the target CYP3A4 (Homo sapiens, UniProt P08684). As to the kind of experiment: Inhibition of CYP3A4 in human liver microsomes using midazolam as substrate preincubated for 30 min followed by NADPH addition measured after 12 mins by LC-MS/MS analysis. The class given is ADME, Microsome. The conditions noted are these: human, liver microsomes, probe midazolam. For orientation: Liver microsomes are vesicles of endoplasmic reticulum, rich in cytochrome P450 enzymes.

The nature of series [21]: Free AUC (0 to 24 hrs) in Beagle dog at 15 mg/kg, po qd measured after 91 days. The class given is ADME, organism-based, Canis lupus familiaris. Conditions: in vivo, 2184 h, time 91 day.
Series [22] in a line: Toxicity in Beagle dog assessed as splayed limbs at 60 mg/kg, po qd measured after 34 days. Type of series: organism-based, Canis lupus familiaris. Conditions: in vivo, 816 h, time 34 day.
Another series has as its target CYP2C9 (Homo sapiens, UniProt P11712). Nature of the series: Inhibition of CYP2C9 in human liver microsomes using diclofenac as substrate preincubated for 30 min followed by NADPH addition measured after 12 mins by LC-MS/MS analysis. Type of series: ADME, Microsome. The conditions noted are these: human, liver microsomes, probe diclofenac.
Series [23] is described as follows: Drug concentration in Sprague-Dawley rat liver at 10 mg/kg, po measured for 24 hrs by LC-MS/MS analysis. Type of series: ADME, organism-based. Conditions: read-out: Ct.
A short description of series [24]: Free Cmax in Beagle dog at 60 mg/kg, po qd measured after 91 days. The class given is ADME, organism-based, Canis lupus familiaris. Conditions: in vivo, 2184 h, time 91 day.
Series [25] can be described thus: Toxicity in Beagle dog assessed as uncoordinated movements at 15 mg/kg, po qd measured after 14 days. The conditions noted are these: in vivo, 336 h, time 14 day. The class given is organism-based, Canis lupus familiaris.
A short description of series [26]: Total AUC (0 to 24 hrs) in Beagle dog at 45 mg/kg, po qd measured after 91 days. Type of series: ADME, organism-based, Canis lupus familiaris. The conditions noted are these: in vivo, time 91 day.
Series [27] in a line: Toxicity in Beagle dog assessed as sporadic splayed limbs at 5 to 15 mg/kg, po qd measured after 38 days. The class given is organism-based, Canis lupus familiaris. Conditions: in vivo, 912 h, dose 5-15 mg/kg, time 38 day.
A short description of series [28]: Free AUC (0 to 24 hrs) in Beagle dog at 60 mg/kg, po qd measured after 91 days. Type of series: ADME, organism-based, Canis lupus familiaris. The conditions noted are these: in vivo, 2184 h, time 91 day.
Series [29] is described as follows: Ratio of drug concentration in liver to plasma of Sprague-Dawley rat at 5 mg/kg, po measured for 24 hrs by LC-MS/MS analysis. Type of series: ADME, organism-based. The conditions noted are these: liver and plasma.

One may read the IC50 as the concentration that gives 50% inhibition. In general, EC50 refers to the concentration giving half of the maximal effect. A word on the AUC: it is the area under the concentration-time curve, a measure of exposure. One may read the Cmax as the maximum level reached in the sampled fluid or tissue. In general, Kp refers to tissue or fluid exposure divided by exposure in the circulation.

Chain of CYP3A4 (P08684 whole entry): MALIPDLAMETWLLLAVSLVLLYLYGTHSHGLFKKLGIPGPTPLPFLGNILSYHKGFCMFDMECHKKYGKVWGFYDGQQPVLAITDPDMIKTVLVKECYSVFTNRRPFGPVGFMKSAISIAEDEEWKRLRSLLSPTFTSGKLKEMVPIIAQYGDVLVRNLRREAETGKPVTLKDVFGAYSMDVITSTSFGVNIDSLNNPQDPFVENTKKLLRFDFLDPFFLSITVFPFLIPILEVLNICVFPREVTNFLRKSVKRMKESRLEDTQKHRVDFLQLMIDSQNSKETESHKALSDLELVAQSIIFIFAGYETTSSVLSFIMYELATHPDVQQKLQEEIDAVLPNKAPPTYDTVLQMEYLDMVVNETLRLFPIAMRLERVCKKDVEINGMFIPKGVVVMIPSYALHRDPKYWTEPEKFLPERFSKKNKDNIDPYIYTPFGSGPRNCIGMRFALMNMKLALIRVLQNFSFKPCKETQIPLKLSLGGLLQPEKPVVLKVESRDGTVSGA
Chain of CYP2C9 (P11712 whole entry): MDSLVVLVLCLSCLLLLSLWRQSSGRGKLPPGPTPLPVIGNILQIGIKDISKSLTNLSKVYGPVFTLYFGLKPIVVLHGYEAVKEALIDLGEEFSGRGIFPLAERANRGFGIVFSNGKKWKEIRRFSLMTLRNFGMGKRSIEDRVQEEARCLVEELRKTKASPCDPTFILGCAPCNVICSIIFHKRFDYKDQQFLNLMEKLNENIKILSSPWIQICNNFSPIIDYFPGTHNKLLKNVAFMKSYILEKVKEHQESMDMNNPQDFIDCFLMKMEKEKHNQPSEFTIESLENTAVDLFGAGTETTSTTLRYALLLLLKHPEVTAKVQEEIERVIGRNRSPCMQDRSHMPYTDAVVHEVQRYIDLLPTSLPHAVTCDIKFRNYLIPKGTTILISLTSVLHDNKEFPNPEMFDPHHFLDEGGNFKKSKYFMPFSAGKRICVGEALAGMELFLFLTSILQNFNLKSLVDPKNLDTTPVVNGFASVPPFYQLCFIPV

As to `COc1cc(OC(F)F)c2nc3c(n2c1)C[C@@H](C(C)(C)C)c1cc(C(=O)O)c(=O)[nH]c1-3`, the Activity in series [1] is given as less than 20%; in series [8], less than 30%; in [11] it was less than 15%. Moreover, the fAUC in [2] amounted to 3100 ng·h/mL. The same compound gave an IC50 in series [3] of more than 30000 nM. For the same compound, the concentration for a half-maximal effect (EC50) in the series on Hepatitis B virus [4], in the series with Hepatitis B virus [6] and with Hepatitis B virus [9] was 8.5 nM each time. Further, the values for the fCmax in series [5] and in [7] were 653 ng/mL and 834 ng/mL, respectively. The compound further showed an AUC at 1440 h in series [10] of 3900 ng·h/mL. Further, in series [12], the maximum concentration (Cmax) amounted to 17800 ng/mL.

As for `COCCCOc1cc2c(nc1OC)-c1cc(=O)c(C(=O)O)cn1[C@H](C(C)C)C2`, the IC50 at 12 min against CYP2D6, against CYP3A4 and on CYP2C9 was more than 25000 nM in each case. Further, the fAUC in [13] worked out at 3900 ng·h/mL; in series [19], 35300 ng·h/mL; in series [21], 11400 ng·h/mL; in series [28], 47500 ng·h/mL. The results for the AUC at 2184 h in series [14] and in [26] were 30600 ng·h/mL and 95200 ng·h/mL, respectively. In addition, the peak concentration (Cmax) was found to be 18700 ng/mL in series [15] and 4680 ng/mL in [17]. For the same compound, the results for the partition ratio (Kp) at 24 h in [16] and in [18] were 3.3 and 3, respectively. The half-maximal effective concentration (EC50) in the series with RNA came out at 1.4 nM. In the series with Hepatitis B virus [20], the “log(activity)” value was “<=0.94”. Besides, the Activity entry in [22], in series [25] and in [27] was “Toxic” in each case. In addition, the concentration at 24 h in [23] came to 93 ng/g. Also, the fCmax in series [24] amounted to 6940 ng/mL.

Consider `CC(C)(C)[C@@H]1Cc2c(nc3c(C(F)(F)F)cc(C4CC4)cn23)-c2[nH]c(=O)c(C(=O)O)cc21`, for which the Kp at 24 h in series [29] amounted to 920.
